Results: patent publication US8414923B2, “Immobilization of bioactive molecules within a polymeric substrate” (priority 2007, dated 2013)
Values joined by “and” are separate entries in the source; they are usually repeats but may differ in a detail not shown here. Identical values can stand only once.

What was measured:
[1] = patients under insulin treatment; cited from earlier work
BALB/c mice = assay: Glycemia after oral insulin solution (not seized in polymer) in BALB/c mice; type: in vivo; settings: for Glycemia: oral insulin solution 4 IU/kg, group averages (4 groups of 5 mice)
Experimental: Excipients: Zinc Chloride, glycerol, metacresol, Sodium hydroxide, Chloridic acid, and water suitable for injections. • The irradiation conditions ensuring the best quality of the final product has been described. • Its release or liberation under laboratory conditions and in laboratory animals has been studied. • Bioavailability in laboratory animals, has been studied. • Laboratory experimental pharmacological steps are included. The determination of glycemia in blood is performed employing the following apparatus:
Measuring type device: Accu-Chek Active
The measured values listed in the table are shown averaged in FIG. 1.
GLYCEMIA as a function of time, averaged in four groups of BALB/c mice (five mice in each group), to which oral insulin solution (4 IU/kg) was administered (insulin without been seized into polymer).

[2] = cited from earlier work
[3] = average action profile after subcutaneous injection

In the case of Biosynthetic human insulin, the “Frequency of changes in the levels of glucose in the blood” value [1] is listed as < 1/1000, the “Change of glycemia in mice” value (BALB/c mice; 30 to 75 minutes after oral administration of insulin solution) is listed as “slight diminution of glycemia” and the Glycemia (BALB/c mice; time 0 min) is listed as 100 mg/dL and 102 mg/dL and 105 mg/dL. The Glycemia (BALB/c mice; time 15 min) was 98 mg/dL and 97 mg/dL and 96 mg/dL, the Glycemia (BALB/c mice; time 30 min) was 101 mg/dL and 102 mg/dL and 103 mg/dL and 105 mg/dL and the Glycemia (BALB/c mice; time 60 min) was 90 mg/dL and 93 mg/dL and 98 mg/dL and 96 mg/dL. For the same substance, the Glycemia (BALB/c mice; time 90 min) was 93 mg/dL and 95 mg/dL and 90 mg/dL and 94 mg/dL, the Glycemia (BALB/c mice; time 180 min) was 104 mg/dL and 102 mg/dL and 105 mg/dL and 100 mg/dL and the “Action profile: Duration” value [2, 3] was 7 to 8 h. The “Action profile: Initial” value [2, 3] was “within the first half hour”, the “Bond to plasmatic proteins” value ([2]; except circulating insulin antibodies) was “No significative bond to plasmatic proteins” and the “Average life (t½) of insulin in the bloodstream” value ([2]; in bloodstream) was “only of a few minutes”. The t½ ([2]; injected (subcutaneous) insulin, clinical studies, determined by absorption) was 2 to 5 h.
